Assay results as given in patent US20110294736A1, “COMPOUNDS AND METHODS FOR THE TREATMENT OF AUTOIMMUNE AND INFLAMMATORY DISEASE” (THE PROVOST, FELLOWS AND SCHOLARS OF THE HOLY AND UNDIVIDED …, priority 2008, published 2011).

Tested on: BMDC
Assay: IL-12p40, IL-23, IL-12p70 and IL-10 ELISA in BMDC with p38 or ERK inhibitor, Tri-DAP and LPS or CpG
Format: cell-based, murine
Conditions: ERK inhibitor 5 μM 30 minutes before Tri-DAP 100 μg/ml
Experimental: BMDC (1×10^6) were pretreated with the p38 inhibitor, SB203580 (5 μM—FIGS. 10-11), or the ERK inhibitor UO126 (5 μM—FIGS. 12-13) for 30 minutes prior to stimulation with Tri-DAP (100 μg/ml) or medium alone. After 2 hours the cells were then stimulated with LPS (100 ng/ml—FIGS. 10 and 12), with the TLR agonist CpG (5 μg/ml—FIGS. 11 and 13) or with medium alone. Supernatants were collected after 24 hours and IL-12p40, IL-23, IL-12p70 and IL-10 concentrations were quantified by ELISA.

N#CC(=C(/N)Sc1ccccc1N)/C(C#N)=C(\N)Sc1ccccc1N [U0126, reference compound]
enhancement of LPS induced IL-12p70 by Tri-DAP (LPS 100 ng/ml): only marginally affected
enhancement of LPS induced IL-23 production by Tri-DAP (LPS 100 ng/ml): suppressed
IL-10 production by Tri-DAP with LPS or with CpG (LPS 100 ng/ml or CpG 5 μg/ml): suppressed
